{"source": "patent US20060057101A1", "about": "“German cockroach attractant” (priority 2004, published 2006)", "key": {"male German cockroaches": {"tested_on": "male German cockroaches", "experiment": "two-choice olfactometer behavioral assay", "assay_type": "in vivo, Blattella germanica", "procedure": "FIG. 3 is a graphic representation of behavioral responses of male German cockroaches to one female equivalent of a crude extract of many virgin females and to various doses of the synthetic pheromone, gentisyl quinone isovalerate. The pheromone was applied in 20 μl of methylene chloride to a filter paper disc and presented to single males acclimated in the two-choice olfactometer vs. a methylene chloride control filter paper. Behavioral response is defined as quiescent males that were activated and ran out of their cage. Each assay consisted of testing 10-16 males in individual olfactometers and the assays were replicated 3-18 times. The mean responses and SEM are indicated.\nFIG. 4 is a graphic representation of behavioral responses of male German cockroaches to one female equivalent of a crude extract of many virgin females and to various doses of the synthetic pheromone, gentisyl quinone isovalerate. Procedures are as in FIG. 3, but reported is the latency in seconds before males left their cages.\nThe biological activity of extracts and fractions was assayed both behaviorally and with an electroantennogram (“EAG”). Schal et al., “Site of Pheromone Production in Female Supella longipalpa (F.) (Dictyoptera: Blattellidae): Behavioral, Electrophysiological, and Morphological Evidence,” Annals Entomol. Soc. Amer. 85:605-611 (1992), which is hereby incorporated by reference in its entirety. For behavioral assays a two-choice olfactometer was used. Liang et al., “Effects of Pheromone Concentration and Photoperiod on the Behavioral Response Sequence to Sex Pheromone in the Male Brown-Banded Cockroach, Supella longipalpa,” J. Insect Behavior 3:211-223 (1990), and Liang et al., “Volatile Sex Pheromone in the Female German Cockroach,” Experientia 49:324-328 (1993a), which are hereby incorporated by reference in their entirety. Briefly, a straight Plexiglas tube (55 cm long and 3 cm ID) was divided along 15 cm of its upwind end and air was drawn through it at 20 cm/min. […] The percentage of insects running upwind and the latency, in seconds, before they responded were recorded."}, "[1]": {"tested_on": "brownbanded cockroach males", "conditions": "cited from earlier work"}}}
{"molecule": "CC(C)CC(=O)OCC1=CC(=O)C=CC1=O", "note": "[synthetic pheromone, gentisyl quinone isovalerate]", "values": [{"measurement": "males responding (quiescent males activated and running out of their cage)", "setting": "male German cockroaches; 10-100 ng of the pheromone on filter paper, FIG. 3", "result": "More than 60%"}, {"measurement": "latency of the male response before leaving cage", "setting": "male German cockroaches; doses between 10 ng and 1 μg, FIG. 4", "result": "shortest latency"}, {"measurement": "dose-response of male behavioral response", "setting": "male German cockroaches; various doses on filter paper, FIG. 3", "result": "clear dose-response"}]}
{"molecule": "supellapyrone", "values": [{"measurement": "increase in number of adult males trapped relative to respective controls", "setting": "[1]; all treatments, field traps", "result": "6-28 times"}, {"measurement": "attractiveness to males in the field", "setting": "[1]; field, jar traps", "result": "highly attractive"}]}
